The source of these data is patent publication US20260297060A1, “COMPOUNDS FOR THE DEGRADATION OF MUTANT BRAF” (C4 THERAPEUTICS, INC., priority 2023, published 2026).

Where two headings read alike, the source gives them in different places. Where only a bound is given, the exact number is not on record here.

The target of one assay is T1, BRAF V600E (Homo sapiens, UniProt P15056+Q96SW2, V600E).
T1 construct: knock-in of the HiBiT tag to the endogenous BRAF V600E locus; host or cells: A375.10 (A375 clonal line, CRISPR HiBiT knock-in at the endogenous BRAF V600E locus)
Description: BRAF V600E HiBiT Degradation Assay. Format: cell-based. In outline:
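Endogenous HiBiT knock-in on BRAF V600E in A375 cells (clone A375.10); 11-point half-log series, top 10 μM, 2, 6 or 24 h at 37° C. Lytic HiBiT luminescence, background-subtracted, normalized to DMSO; 4-parameter fit gives DC50, Emax (residual protein) and IP (inflection point).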

The next assay has as its system A375-NRAS^Q61K cells. Description: CTGlo Cell Viability Assay, A375-NRAS^Q61K (A375.11) cells, 96 hours. Format: cell-based, human. As to conditions: A375.11 (A375-NRAS^Q61K) cells; for CTGlo A375.11 96 hours Emax / Emax: lowest % viability achieved. An outline of the steps:
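A375 cells carrying BRAF V600E and NRAS Q61K were seeded at 250 cells/well with a 10-point half-log dose series (max 10 μM final). After 96 h at 37 °C, viability was read as ATP luminescence (CellTiter-Glo), background-subtracted and normalized to DMSO (100%). GI50 from 4-parameter fit; Emax is the lowest % viability.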

Where [1] appears, read: A375.10 cells, BRAF V600E, 2 hours, inflection point, read-out: HiBiT-Degradation A375.10 BRAF 2 hours IP.
The mark [2] stands for this setting: A375.10 cells, BRAF V600E, 2 hours, read-out: HiBiT-Degradation A375.10 BRAF 2 hours DC50.
The mark [3] stands for this setting: A375.10 cells, BRAF V600E, 2 hours, residual protein remaining.
[4] abbreviates: A375.10 cells, BRAF V600E, 2 hours, residual protein remaining, read-out: HiBiT-Degradation A375.10 BRAF 2 hours Emax.
[5] abbreviates: A375.10 cells, HiBiT, BRAF V600E, 24 hours, read-out: HiBiT-Degradation A375.10 BRAF 24 hours DC50.
Where [6] appears, read: A375.10 cells, HiBiT, BRAF V600E, 24 hours, read-out: HiBiT-Degradation A375.10 BRAF 24 hours Emax.
[7] abbreviates: A375.10 cells, HiBiT, BRAF V600E, 24 hours, read-out: HiBiT-Degradation A375.10 BRAF 24 hours IP.

T1 sequence (P15056 whole entry V600E): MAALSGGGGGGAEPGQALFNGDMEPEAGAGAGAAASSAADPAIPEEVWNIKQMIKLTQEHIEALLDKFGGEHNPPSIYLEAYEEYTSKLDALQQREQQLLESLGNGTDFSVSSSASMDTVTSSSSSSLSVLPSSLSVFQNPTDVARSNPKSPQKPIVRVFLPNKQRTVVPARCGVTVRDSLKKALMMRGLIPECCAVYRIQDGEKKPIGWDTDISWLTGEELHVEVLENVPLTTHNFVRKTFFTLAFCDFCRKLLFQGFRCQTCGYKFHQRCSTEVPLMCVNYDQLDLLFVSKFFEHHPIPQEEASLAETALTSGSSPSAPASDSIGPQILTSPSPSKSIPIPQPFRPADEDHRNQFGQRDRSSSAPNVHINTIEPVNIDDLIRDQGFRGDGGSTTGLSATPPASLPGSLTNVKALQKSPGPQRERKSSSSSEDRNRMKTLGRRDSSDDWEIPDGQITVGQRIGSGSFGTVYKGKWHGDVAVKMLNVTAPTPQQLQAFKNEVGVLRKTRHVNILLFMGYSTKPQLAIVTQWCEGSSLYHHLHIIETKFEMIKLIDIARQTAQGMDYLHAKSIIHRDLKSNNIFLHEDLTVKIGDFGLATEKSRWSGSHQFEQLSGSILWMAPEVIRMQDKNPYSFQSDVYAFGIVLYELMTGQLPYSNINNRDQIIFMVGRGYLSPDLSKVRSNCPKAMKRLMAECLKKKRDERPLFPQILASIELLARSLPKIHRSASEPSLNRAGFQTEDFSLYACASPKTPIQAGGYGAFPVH
T1 sequence (Q96SW2 whole entry): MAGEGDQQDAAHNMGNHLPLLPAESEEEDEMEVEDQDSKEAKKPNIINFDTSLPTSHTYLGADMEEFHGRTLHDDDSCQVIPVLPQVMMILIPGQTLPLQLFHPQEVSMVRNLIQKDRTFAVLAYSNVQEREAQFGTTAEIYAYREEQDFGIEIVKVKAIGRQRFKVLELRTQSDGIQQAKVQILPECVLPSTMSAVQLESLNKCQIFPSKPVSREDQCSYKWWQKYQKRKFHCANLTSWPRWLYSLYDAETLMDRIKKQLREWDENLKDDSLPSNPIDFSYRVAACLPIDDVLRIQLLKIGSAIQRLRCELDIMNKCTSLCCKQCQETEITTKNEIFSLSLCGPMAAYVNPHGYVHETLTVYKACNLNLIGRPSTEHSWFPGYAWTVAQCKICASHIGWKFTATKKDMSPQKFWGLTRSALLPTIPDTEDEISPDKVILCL
T1 sequence (Q16531 whole entry partner): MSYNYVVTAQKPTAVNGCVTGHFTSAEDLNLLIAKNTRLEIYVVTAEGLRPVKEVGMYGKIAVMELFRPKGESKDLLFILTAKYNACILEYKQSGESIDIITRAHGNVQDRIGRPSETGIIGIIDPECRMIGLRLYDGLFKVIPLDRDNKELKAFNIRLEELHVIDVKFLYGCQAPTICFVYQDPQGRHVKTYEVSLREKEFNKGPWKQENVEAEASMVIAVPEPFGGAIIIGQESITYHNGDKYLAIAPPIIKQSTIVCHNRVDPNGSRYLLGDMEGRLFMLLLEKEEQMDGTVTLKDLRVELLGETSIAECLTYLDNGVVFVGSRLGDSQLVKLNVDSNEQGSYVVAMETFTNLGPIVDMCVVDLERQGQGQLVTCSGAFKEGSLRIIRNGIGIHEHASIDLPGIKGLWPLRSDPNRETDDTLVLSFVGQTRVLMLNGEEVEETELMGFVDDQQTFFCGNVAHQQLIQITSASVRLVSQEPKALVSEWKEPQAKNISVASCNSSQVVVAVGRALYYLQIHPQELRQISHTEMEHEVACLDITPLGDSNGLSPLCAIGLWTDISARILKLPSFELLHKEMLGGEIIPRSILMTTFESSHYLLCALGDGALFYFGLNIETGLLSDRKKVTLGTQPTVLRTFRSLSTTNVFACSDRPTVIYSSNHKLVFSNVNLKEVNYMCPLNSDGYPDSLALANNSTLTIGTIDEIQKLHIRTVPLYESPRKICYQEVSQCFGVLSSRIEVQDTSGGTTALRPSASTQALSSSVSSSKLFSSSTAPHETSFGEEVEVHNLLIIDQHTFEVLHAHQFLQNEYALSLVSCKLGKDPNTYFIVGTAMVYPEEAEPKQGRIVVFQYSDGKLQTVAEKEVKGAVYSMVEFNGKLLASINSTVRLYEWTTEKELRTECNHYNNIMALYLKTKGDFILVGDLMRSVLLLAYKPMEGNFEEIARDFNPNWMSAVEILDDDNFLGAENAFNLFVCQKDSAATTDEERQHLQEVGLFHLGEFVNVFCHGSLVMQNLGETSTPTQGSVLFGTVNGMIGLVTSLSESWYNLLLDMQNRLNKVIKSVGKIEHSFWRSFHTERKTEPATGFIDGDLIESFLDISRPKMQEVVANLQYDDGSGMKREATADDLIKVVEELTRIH

For `CN(CCO)S(=O)(=O)Nc1ccc(F)c(Oc2ccc3ncn([C@H]4COC5(CCC(N6CCC(c7cc8c(cc7F)c(N7CCC(=O)NC7=O)nn8C)C(F)(F)C6)CC5)C4)c(=O)c3c2)c1C#N` (single isomer, unassigned) [Compound 214], the DC50 at BRAF V600E (setting [1]) is under 1000 nM. Moreover, on BRAF V600E (setting [2]), the DC50 is under 1000 nM. In addition, the “HiBiT-Degradation A375.10 BRAF 2 hours Emax” value on BRAF V600E (setting [3]) was “*** (<=50%)”. Also, in the assay on A375-NRAS^Q61K cells, the GI50 is under 1000 nM and the “CTGlo A375.11 96 hours Emax” value is “*** (<=50%)”.

For the molecule `CN(CCO)S(=O)(=O)Nc1ccc(F)c(Oc2ccc3ncc([C@@H]4COC5(CCN(C6CCC(c7cc8c(cc7F)c(N7CCC(=O)NC7=O)nn8C)CC6)CC5)C4)nc3c2)c1C#N` (single isomer, unassigned) [Compound 174], the DC50 at BRAF V600E (setting [1]) and on BRAF V600E (setting [2]) was under 1000 nM throughout. In addition, the Emax at BRAF V600E (setting [4]) was under 50%; with A375-NRAS^Q61K cells (Homo sapiens, 96 h), 50 to 90%. Besides, the 50% growth inhibitory concentration (GI50) in the assay with A375-NRAS^Q61K cells (Homo sapiens, 96 h) was under 1000 nM.

With `CCN(C)S(=O)(=O)Nc1ccc(F)c(Oc2ccc3ncn(CCC4CCN(C5CCC(c6cc7c(cc6F)c(N6CCC(=O)NC6=O)nn7C)CC5)CC4)c(=O)c3c2)c1C#N` (single isomer, unassigned) [Compound 138, 6-[2-cyano-3-[[ethyl(methyl)sulfamoyl]amino]-6-fluoro-phenoxy]-3-[2-[1-[4-[3-(2,4-dioxohexahydropyrimidin-1-yl)-5-fluoro-1-methyl-indazol-6-yl]cyclohexyl]-4-piperidyl]ethyl]-4-oxo-quinazoline], the DC50 at BRAF V600E (setting [1]) was under 1000 nM; on BRAF V600E (setting [2]), 1000 to 10000 nM. Moreover, the “HiBiT-Degradation A375.10 BRAF 2 hours Emax” value at BRAF V600E (setting [3]) was “** (<90% and >50%)”. In the assay on A375-NRAS^Q61K cells, this molecule gave a GI50 of 1000 to 10000 nM. Moreover, the “CTGlo A375.11 96 hours Emax” value in the assay with A375-NRAS^Q61K cells is “** (<90% and >50%)”.

For the molecule `CN(CCO)S(=O)(=O)Nc1ccc(F)c(Oc2ccc3ncn(C4CC5(CCN(C6CC7(C6)CN(c6cc8c(cc6F)c(N6CCC(=O)NC6=O)nn8C)C7)CC5)C4)c(=O)c3c2)c1F` (stereo not shown) [Compound 197, 6-[2,6-difluoro-3-[[2-hydroxyethyl(methyl)sulfamoyl]amino]phenoxy]-3-[7-[2-[3-(2,4-dioxohexahydropyrimidin-1-yl)-5-fluoro-1-methyl-indazol-6-yl]-2-azaspiro[3.3]heptan-6-yl]-7-azaspiro[3.5]nonan-2-yl]-4-oxo-quinazoline], the DC50 is under 1000 nM on BRAF V600E (setting [1]) and 1000 to 10000 nM at BRAF V600E (setting [2]). Moreover, the Emax lay within 50 to 90% at BRAF V600E (setting [4]) and 50 to 90% in the assay on A375-NRAS^Q61K cells (Homo sapiens, 96 h). This molecule also returned a GI50 in the assay with A375-NRAS^Q61K cells (Homo sapiens, 96 h) of 1000 to 10000 nM.

As to `CCN(C)S(=O)(=O)Nc1ccc(F)c(Oc2ccc3ncn([C@H]4COC5(CCC(N6CC[C@@H](c7ccc(NC8CCC(=O)NC8=O)cc7F)C(F)(F)C6)CC5)C4)c(=O)c3c2)c1C#N` (stereo partly drawn) [Compound 189, 6-[2-cyano-3-[[ethyl(methyl)sulfamoyl]amino]-6-fluoro-phenoxy]-3-[(3R)-8-[(4S)-4-[4-[(2,6-dioxo-3-piperidyl)amino]-2-fluoro-phenyl]-3,3-difluoro-1-piperidyl]-1-oxaspiro[4.5]decan-3-yl]-4-oxo-quinazoline], the DC50 at BRAF V600E (setting [1]) and at BRAF V600E (setting [2]) was under 1000 nM throughout. Also, the Emax at BRAF V600E (read-out: HiBiT-Degradation A375.10 BRAF 2 hours Emax, A375.10 cells, BRAF V600E, 2 hours, residual protein remaining) was 50 to 90%; in the assay with A375-NRAS^Q61K cells (Homo sapiens, 96 h) it was under 50%. The molecule also gave a GI50 in the assay on A375-NRAS^Q61K cells (Homo sapiens, 96 h) of over 10000 nM.

Regarding `CO[C@H]1CCN(S(=O)(=O)Nc2ccc(F)c(Oc3ccc4ncc(C5CC6(CCN(C7CC8(C7)CN(c7cc9c(cc7F)c(N7CCC(=O)NC7=O)nn9C)C8)CC6)C5)nc4c3)c2C#N)C1` (stereo partly drawn) [Compound 279, (3S)-N-[2-cyano-3-[3-[7-[2-[3-(2,4-dioxohexahydropyrimidin-1-yl)-5-fluoro-1-methyl-indazol-6-yl]-2-azaspiro[3.3]heptan-6-yl]-7-azaspiro[3.5]nonan-2-yl]quinoxalin-6-yl]oxy-4-fluoro-phenyl]-3-methoxy-pyrrolidine-1-sulfonamide], the Emax at BRAF V600E (setting [4]) was 50 to 90%; with A375-NRAS^Q61K cells (Homo sapiens, 96 h) it was 50 to 90%. Also, the DC50 was under 1000 nM at BRAF V600E (read-out: HiBiT-Degradation A375.10 BRAF 2 hours DC50, A375.10 cells, BRAF V600E, 2 hours) and under 1000 nM at BRAF V600E (read-out: HiBiT-Degradation A375.10 BRAF 2 hours IP, A375.10 cells, BRAF V600E, 2 hours, inflection point). Besides, the 50% growth inhibitory concentration (GI50) with A375-NRAS^Q61K cells (Homo sapiens, 96 h) is over 10000 nM.

Regarding `CCN(C)S(=O)(=O)Nc1ccc(F)c(Oc2ccc3ncc(CCC4CCN(C5CCC(c6cc7c(cc6F)c(N6CCC(=O)NC6=O)nn7C)CC5)CC4)nc3c2)c1C#N` (single isomer, unassigned) [Compound 129, 7-[2-cyano-3-[[ethyl(methyl)sulfamoyl]amino]-6-fluoro-phenoxy]-2-[2-[1-[4-[3-(2,4-dioxohexahydropyrimidin-1-yl)-5-fluoro-1-methyl-indazol-6-yl]cyclohexyl]-4-piperidyl]ethyl]quinoxaline], the DC50 at BRAF V600E (setting [1]) and at BRAF V600E (setting [2]) was under 1000 nM in each case. Besides, the “HiBiT-Degradation A375.10 BRAF 2 hours Emax” value at BRAF V600E (setting [3]) is “** (<90% and >50%)”. This molecule yielded a GI50 in the assay on A375-NRAS^Q61K cells of 1000 to 10000 nM. The “CTGlo A375.11 96 hours Emax” value in the assay on A375-NRAS^Q61K cells is “** (<90% and >50%)”.

Take `CCN(C)S(=O)(=O)Nc1ccc(F)c(Oc2ccc3ncn(C4CC5(CCC(N6CC[C@@H](c7cc8c(cc7F)c(N7CCC(=O)NC7=O)nn8C)C(F)(F)C6)CC5)C4)c(=O)c3c2)c1C#N` (stereo partly drawn) [Compound 225, 6-[2-cyano-3-[[ethyl(methyl)sulfamoyl]amino]-6-fluoro-phenoxy]-3-[7-[(4S)-4-[3-(2,4-dioxohexahydropyrimidin-1-yl)-5-fluoro-1-methyl-indazol-6-yl]-3,3-difluoro-1-piperidyl]spiro[3.5]nonan-2-yl]-4-oxo-quinazoline]: the DC50 at BRAF V600E (setting [1]) and on BRAF V600E (setting [2]) was under 1000 nM throughout. Also, the Emax is under 50% at BRAF V600E (setting [4]) and under 50% with A375-NRAS^Q61K cells (Homo sapiens, 96 h). The 50% growth inhibitory concentration (GI50) with A375-NRAS^Q61K cells (Homo sapiens, 96 h) was under 1000 nM.

`CCN(C)S(=O)(=O)Nc1ccc(F)c(Oc2ccc3ncn(C4CC5(CCN(C6CCC(c7cc8c(cc7F)c(N7CCC(=O)NC7=O)nn8C)CC6)CC5)C4)c(=O)c3c2)c1C#N` (single isomer, unassigned) [Compound 9, 6-[2-cyano-3-[[ethyl(methyl)sulfamoyl]amino]-6-fluoro-phenoxy]-3-[7-[4-[3-(2,4-dioxohexahydropyrimidin-1-yl)-5-fluoro-1-methyl-indazol-6-yl]cyclohexyl]-7-azaspiro[3.5]nonan-2-yl]-4-oxo-quinazoline]: the DC50 was under 1000 nM at BRAF V600E (setting [1]); under 1000 nM on BRAF V600E (setting [2]); under 1000 nM at BRAF V600E (A375.10 cells, BRAF V600E, 6 hours, inflection point, read-out: HiBiT-Degradation A375.10 BRAF 6 hours IP); under 1000 nM at BRAF V600E (A375.10 cells, BRAF V600E, 6 hours, read-out: HiBiT-Degradation A375.10 BRAF 6 hours DC50); under 1000 nM at BRAF V600E (setting [5]); under 1000 nM on BRAF V600E (setting [7]). Also, the “HiBiT-Degradation A375.10 BRAF 2 hours Emax” value at BRAF V600E (setting [3]) was “*** (<=50%)”. The Emax is under 50% at BRAF V600E (A375.10 cells, BRAF V600E, 6 hours, residual protein remaining, read-out: HiBiT-Degradation A375.10 BRAF 6 hours Emax) and under 50% at BRAF V600E (setting [6]). Further, the GI50 with A375-NRAS^Q61K cells is under 1000 nM. Besides, the “CTGlo A375.11 96 hours Emax” value in the assay with A375-NRAS^Q61K cells is “*** (<=50%)”.

Take `CCN(C)S(=O)(=O)Nc1ccc(F)c(Oc2ccc3ncn(C4CC5(CCN(C6CCC(c7ccc(NC8CCC(=O)NC8=O)cc7F)CC6)CC5)C4)c(=O)c3c2)c1F` (single isomer, unassigned) [Compound 167, 3-[7-[4-[4-[(2,6-dioxo-3-piperidyl)amino]-2-fluoro-phenyl]cyclohexyl]-7-azaspiro[3.5]nonan-2-yl]-6-[3-[[ethyl(methyl)sulfamoyl]amino]-2,6-difluoro-phenoxy]-4-oxo-quinazoline]: the DC50 at BRAF V600E (setting [1]) was under 1000 nM. Also, the DC50 at BRAF V600E (setting [2]) was over 10000 nM. The “HiBiT-Degradation A375.10 BRAF 2 hours Emax” value on BRAF V600E (setting [3]) is “** (<90% and >50%)”. In the assay with A375-NRAS^Q61K cells, the concentration for 50% growth inhibition (GI50) lay within 1000 to 10000 nM; the “CTGlo A375.11 96 hours Emax” value was “** (<90% and >50%)”.

For `CCN(C)S(=O)(=O)Nc1ccc(F)c(Oc2ccc3ncn([C@H]4CO[C@@]5(CCN(C6CCC(c7cc8c(cc7F)c(N7CCC(=O)NC7=O)nn8C)CC6)C5)C4)c(=O)c3c2)c1C#N` (single isomer, unassigned) [Compound 292], the DC50 at BRAF V600E (setting [1]), on BRAF V600E (setting [2]), on BRAF V600E (setting [5]) and at BRAF V600E (setting [7]) was under 1000 nM in each case. In addition, the Emax is under 50% at BRAF V600E (setting [4]); under 50% at BRAF V600E (setting [6]); 50 to 90% in the assay with A375-NRAS^Q61K cells (Homo sapiens, 96 h). Besides, the 50% growth inhibitory concentration (GI50) in the assay on A375-NRAS^Q61K cells (Homo sapiens, 96 h) was under 1000 nM.
